{"source": "patent US20260325617A1", "about": "“INKT Cell Modulator Liposomal Compositions and Methods of Use” (priority 2023, published 2026)", "key": {"[1]": {"test_system": "iNKT cells / immune cells", "test": "PD-1 / PD-L1 upregulation on immune cells by soluble IMM60"}, "[2]": {"test": "Mouse pharmacokinetics of IMM60 after i.v. liposomal or soluble IMM60 (Example 7)", "assay_type": "in vivo, mouse (C57BL/6 and CD1)", "method": "The two strains of mice that were compared were CD1 mice (not to be confused with CD1d-KO mice) and C57BL/mice. The half-life, volume of distribution, clearance, AUC, and Cmax were calculated using the one-compartmental model with first-order kinetics.\nLipid formulation: DSPG:DSPC:IMM60 (3.44:4.37:1 mg/ml) in a 250 mM sucrose, 145 mM NaCl, 10 mM sodium phosphate, pH 6.5 buffer. Before use, Vials of liposomal IMM60 were thawed at room temperature (21° C.-22° C.), then heated to 55° C. for 10 minutes using a heated water bath. Vials were mixed by inversion six times, cooled to room temperature, and diluted to either 100 ng/ml or 10,000 ng/ml using injection grade saline (0.9% NaCl).\nSoluble IMM60: Lyophilized material was resuspended in Chloroform:methanol:water (10:10:3) to 10 mg/ml (vials of 100 μg in 10 μl) swirled around to capture all the material and then Vehicle solution (150 mM NaCl, 0.5% Tween20 in distilled water) added quickly to a final concentration of 100 μg/ml (for 100 μg in 10 μl, added 990 μl of Vehicle), then then heated to 80-90° C. for 5 minutes, and sonicated with a waterbath sonicator for 5 minutes. Samples were diluted to 10,000 ng/ml using injection grade saline.\nMice were warmed up for 20-30 minutes in cages place in a 37° C. heating chamber. Mice within each group were injected intravenously, using 27G insulin syringe needles, with 100 μl (C57BL/mice) or 150 μl (CD-1 mice) of the recorded dose over approximately 4 seconds.\nPlasma samples were analyzed by LC/MS/MS at Frontage Laboratories. […] The method uses alpha GalCer (analog to IMM60) as an internal standard and the mass spectroctoscopic ionization is electrospray in the positive ionization mode. The range of calibration standards is between 1 ng/mL to 1000 ng/mL IMM60 in mouse plasma.\nPlasma concentrations were measured 10 and 180 minutes after IV administration. The half-life, clearance, and AUC(0-∞) were calculated using the one-compartmental model with first-order kinetics since only two time points were samples along the PK profile. Using these assumptions allow for the calculation of PK parameters. Other assumption is that the T10 minutes is substituted for T0 and C10 minutes is substituted for C0 and Cmax to solve for PK parameters of liposomal IMM60.\nStatistical Calculations: the mean, standard deviation (SD), standard error of the mean (SE), p-value from the t-test (equal or unequal variances) was calculated using Microsoft Excel 201 (Microsoft Corporation). Equal or unequal variances were chosen based on use of the F-test function. All t-test comparisons were performed with the 1000 ng IMM60 in liposome form as the control. Half-life T(1/2) in Mouse of IMM60: The half-life for mice of IMM60 is calculated using Equation 1 using the one-compartment model with 1st order kinetics."}, "[3]": {"settings": "individual mouse, C57BL/6, 1000 ng i.v., listed as IMM60 soluble"}, "[4]": {"settings": "individual mouse, CD1, 1500 ng i.v., listed as IMM60 soluble"}}, "note": "“And” between values parts separate entries of the source, which are not always exact repeats. Identical values can stand only once. Like-named read-outs stand apart in the source and are kept apart here.", "data": [{"smiles": "CCCCCCCCCCCCCCCCCCCCCCCCCC(=O)N[C@@H](CO[C@H]1CC[C@H](O)[C@H](O)[C@H]1O)[C@H](O)[C@H](O)CCCCCCCCCCCCCC", "note": "[soluble IMM60]", "values": [{"measurement": "PD-1 on iNKT cells", "setting": "[1]", "value": "upregulate the levels of PD-1 on iNKT cells"}, {"measurement": "PD-L1 on a variety of immune cells", "setting": "[1]", "value": "upregulates expression of PD-L1"}, {"measurement": "Cmax", "setting": "[2]; individual mouse, C57BL/6, 1000 ng i.v., 10 min, listed as IMM60 soluble", "value": 87.7, "unit": "ng/mL"}, {"measurement": "AUC(0-∞)", "setting": "[2]; [3]", "value": "12,418 ng/ml/min"}, {"measurement": "Vd", "setting": "[2]; [3]", "value": 0.0114, "unit": "L"}, {"measurement": "half-life", "setting": "[2]; [3]", "value": 1.636, "unit": "h"}, {"measurement": "Cmax", "setting": "[2]; individual mouse, CD1, 1500 ng i.v., 10 min, listed as IMM60 soluble", "value": 105.0, "unit": "ng/mL"}, {"measurement": "AUC(0-∞)", "setting": "[2]; [4]", "value": "17,976 ng/ml/min"}, {"measurement": "Vd", "setting": "[2]; [4]", "value": 0.01429, "unit": "L"}, {"measurement": "half-life", "setting": "[2]; [4]", "value": 1.9773, "unit": "h"}, {"measurement": "Half-life and volume of distribution vs liposomal", "setting": "[2]; mice", "value": "longer half-life and larger volume of distribution"}, {"measurement": "AUC(0-inf)", "setting": "[2]; mouse, plasma, iv, 0.001 mg, average, C57BL/6, 1000 ng i.v.", "value": 204, "unit": "ng·h/mL"}, {"measurement": "Cmax at 10 min", "setting": "[2]; mouse, plasma, iv, 0.001 mg, average, C57BL/6, 1000 ng i.v., 10 min", "value": 89.7, "unit": "ng/mL"}, {"measurement": "clearance", "setting": "[2]; mouse, plasma, iv, 0.001 mg, average, C57BL/6, 1000 ng i.v., read-out: Clearance", "value": 0.08, "unit": "mL/min"}, {"measurement": "half-life", "setting": "[2]; mouse, plasma, iv, 0.001 mg, average, C57BL/6, 1000 ng i.v., read-out: Half-life", "value": 1.58, "unit": "h"}, {"measurement": "Vd", "setting": "[2]; mouse, plasma, iv, 0.001 mg, average, C57BL/6, 1000 ng i.v., read-out: Vd", "value": 0.0112, "unit": "L"}, {"measurement": "AUC(0-inf)", "setting": "[2]; mouse, plasma, iv, 0.001 mg, individual mouse, C57BL/6, 1000 ng i.v.", "value": 201, "unit": "ng·h/mL"}, {"measurement": "Cmax at 10 min", "setting": "[2]; mouse, plasma, iv, 0.001 mg, individual mouse, C57BL/6, 1000 ng i.v., 10 min", "value": 91.7, "unit": "ng/mL"}, {"measurement": "clearance", "setting": "[2]; mouse, plasma, iv, 0.001 mg, individual mouse, C57BL/6, 1000 ng i.v., read-out: Clearance", "value": 0.08, "unit": "mL/min"}, {"measurement": "half-life", "setting": "[2]; mouse, plasma, iv, 0.001 mg, individual mouse, C57BL/6, 1000 ng i.v., read-out: Half-life", "value": 1.52, "unit": "h"}, {"measurement": "Vd", "setting": "[2]; mouse, plasma, iv, 0.001 mg, individual mouse, C57BL/6, 1000 ng i.v., read-out: Vd", "value": 0.0109, "unit": "L"}, {"measurement": "AUC(0-inf)", "setting": "[2]; mouse, plasma, iv, 0.0015 mg, average, CD1, 1500 ng i.v.", "value": 269, "unit": "ng·h/mL"}, {"measurement": "Cmax at 10 min", "setting": "[2]; mouse, plasma, iv, 0.0015 mg, average, CD1, 1500 ng i.v., 10 min", "value": 83.7, "unit": "ng/mL"}, {"measurement": "clearance", "setting": "[2]; mouse, plasma, iv, 0.0015 mg, average, CD1, 1500 ng i.v., read-out: Clearance", "value": 0.09, "unit": "mL/min"}, {"measurement": "half-life", "setting": "[2]; mouse, plasma, iv, 0.0015 mg, average, CD1, 1500 ng i.v., read-out: Half-life", "value": 2.32, "unit": "h"}, {"measurement": "Vd", "setting": "[2]; mouse, plasma, iv, 0.0015 mg, average, CD1, 1500 ng i.v., read-out: Vd", "value": 0.0192, "unit": "L"}, {"measurement": "AUC(0-inf)", "setting": "[2]; mouse, plasma, iv, 0.0015 mg, individual mouse, CD1, 1500 ng i.v.", "value": 239, "unit": "ng·h/mL"}, {"measurement": "Cmax at 10 min", "setting": "[2]; mouse, plasma, iv, 0.0015 mg, individual mouse, CD1, 1500 ng i.v., 10 min", "value": 62.4, "unit": "ng/mL"}, {"measurement": "clearance", "setting": "[2]; mouse, plasma, iv, 0.0015 mg, individual mouse, CD1, 1500 ng i.v., read-out: Clearance", "value": 0.1, "unit": "mL/min"}, {"measurement": "half-life", "setting": "[2]; mouse, plasma, iv, 0.0015 mg, individual mouse, CD1, 1500 ng i.v., read-out: Half-life", "value": 2.66, "unit": "h"}, {"measurement": "Vd", "setting": "[2]; mouse, plasma, iv, 0.0015 mg, individual mouse, CD1, 1500 ng i.v., read-out: Vd", "value": 0.024, "unit": "L"}, {"measurement": "AUC(0-inf)", "setting": "[2]; mouse, plasma, iv, 0.05 mg/kg, C57BL and CD1 strains, high dose", "value": "204 to 269", "unit": "ng·h/mL"}, {"measurement": "clearance", "setting": "[2]; mouse, plasma, iv, 0.05 mg/kg, C57BL and CD1 strains, high dose, read-out: Clearance", "value": "3.1 to 4.1", "unit": "mL/min/kg"}, {"measurement": "Cmax", "setting": "[2]; mouse, plasma, iv, 0.05 mg/kg, C57BL and CD1 strains, high dose, read-out: Cmax", "value": "84 to 90", "unit": "ng/mL"}, {"measurement": "half-life", "setting": "[2]; mouse, plasma, iv, 0.05 mg/kg, C57BL and CD1 strains, high dose, read-out: Half life T1/2", "value": "1.58 to 2.32", "unit": "h"}, {"measurement": "Vd", "setting": "[2]; mouse, plasma, iv, 0.05 mg/kg, C57BL and CD1 strains, high dose, read-out: Volume of distribution Vd", "value": "0.558 to 0.639", "unit": "L/kg"}, {"measurement": "AUC(0-inf)", "setting": "[2]; mouse, plasma, iv, 0.05 mg/kg, mean ± SE, 1000 ng (50 μg/kg) i.v.", "value": 204, "unit": "ng·h/mL"}, {"measurement": "clearance", "setting": "[2]; mouse, plasma, iv, 0.05 mg/kg, mean ± SE, 1000 ng (50 μg/kg) i.v., read-out: Cl", "value": "0.08 mL/min and 4.09 mL/min/kg"}, {"measurement": "Cmax", "setting": "[2]; mouse, plasma, iv, 0.05 mg/kg, mean ± SE, 1000 ng (50 μg/kg) i.v., read-out: Cmax", "value": "90 ± 2", "unit": "ng/mL"}, {"measurement": "Vd", "setting": "[2]; mouse, plasma, iv, 0.05 mg/kg, mean ± SE, 1000 ng (50 μg/kg) i.v., read-out: Vd", "value": "0.558 ± 0.012", "unit": "L/kg"}, {"measurement": "half-life", "setting": "[2]; mouse, plasma, iv, 0.05 mg/kg, mean ± SE, 1000 ng (50 μg/kg) i.v., read-out: t1/2", "value": "1.57 ± 0.06", "unit": "h"}, {"measurement": "AUC(0-inf)", "setting": "[2]; mouse, plasma, iv, 0.05 mg/kg, mean ± SE, 1500 ng (50 μg/kg) i.v.", "value": 269, "unit": "ng·h/mL"}, {"measurement": "clearance", "setting": "[2]; mouse, plasma, iv, 0.05 mg/kg, mean ± SE, 1500 ng (50 μg/kg) i.v., read-out: Cl", "value": "0.09 mL/min and 3.13 mL/min/kg"}, {"measurement": "Cmax", "setting": "[2]; mouse, plasma, iv, 0.05 mg/kg, mean ± SE, 1500 ng (50 μg/kg) i.v., read-out: Cmax", "value": "84 ± 21", "unit": "ng/mL"}, {"measurement": "Vd", "setting": "[2]; mouse, plasma, iv, 0.05 mg/kg, mean ± SE, 1500 ng (50 μg/kg) i.v., read-out: Vd", "value": "0.639 ± 0.163", "unit": "L/kg"}, {"measurement": "half-life", "setting": "[2]; mouse, plasma, iv, 0.05 mg/kg, mean ± SE, 1500 ng (50 μg/kg) i.v., read-out: t1/2", "value": "2.32 ± 0.34", "unit": "h"}]}]}
